Consider four compounds from publication PMC9787607, “A Novel Protocol for the Synthesis of 1,2,4-Oxadiazoles Active against Trypanosomatids and Drug-Resistant Leukemia Cell Lines” (Tropical Medicine and Infectious Disease, 2022).

The test system of data set [1] is T. cruzi amastigotes (Tulahuen C2C4 LacZ strain). Kind of data set: microbe, parasite or virus in culture. In kind it is cell-based, Trypanosoma cruzi. Conditions: for viability at 50 µM: LLC-MK2, 120 h; for EC50: in LLC-MK2, 120 h, read-out: EC50 T. cruzi intracellular amastigotes; for S.I. (selectivity index): host cell/parasite EC50 ratio, LLC-MK2/T. cruzi. The protocol: To a monolayer of 1.0 × 10^7 LLC-MK2 cells in a 150 cm^2 culture flask were added 5.0 × 10^7 trypomastigotes of T. cruzi expressing the […] (Tulahuen C2C4 LacZ) in complete DMEM with 2.5% FBS. The infection was allowed to occur for 24 h, the supernatant was removed, and the cell monolayer was washed with PBS. Complete DMEM with 2.5% FBS was renewed every 2 days up to the sixth day after infection. Trypomastigote forms were collected daily from the supernatant between days 7 and 12 after infection, enriched by differential centrifugation (1500× g for 10 min, 5580× g for 20 min), and resuspended in complete DMEM with 5% FBS. Parasite density was determined by counting the mobile trypomastigotes on Neubauer chambers before use.
. The medium was renewed, and trypomastigote forms of T. cruzi (Tulahuen C2C4 LacZ strain, 2.0 × 10^5 parasites per well) were added. After incubation for 24 h at 37 °C in 5% CO2, the cell monolayer was washed with PBS to remove noninternalized parasites. DMEM without phenol red and 5% FBS was added, and infected cells were treated with compounds at a range of concentrations in triplicate (50 μM or 100–1 μM). Untreated infected cells and noninfected LLC-MK2 cells were used as negative and positive controls, respectively. Vehicle control containing DMEM without phenol red and 0.3% DMSO was maintained for comparison. After incubation for 120 h at 37 °C in 5% CO2, a solution containing […] and 0.8% IGEPAL CA-630 in PBS (30 µL per well), followed by further incubation for 2 h at 37 °C in 5% CO2. Absorbance was measured using a microplate reader at 570 nm.
(§1) The percent cell or parasite viability was calculated by the formula: % viability = [(A − P)/(N − P)] × 100, A = absorbance of specific well, P = positive control, N = negative control. Determination of half-maximal effective concentrations (EC50), calculated by logarithmic regression, and significance analysis (p < 0.05), using ANOVA and Dunnett’s test, by GraphPad Prism 7.0 software. The results are expressed as the mean and standard deviation (SD) of three independent experiments.

For data set [2], the system named is L. amazonensis promastigotes. Kind of data set: Anti-L. amazonensis promastigote assessment (MTT). It is filed as cell-based. As to conditions: Leishmania amazonensis; 48 h, MTT; read-out: EC50 L. amazonensis promastigotes. The essentials: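 Stationary-phase promastigotes (MHOM/BR/75/Josefa) in Schneider's medium with 10% FBS, 0.3% DMSO vehicle, exposed 48 h at 27 °C; 10 µM amphotericin B as positive control. MTT viability read at 570 nm, normalised to controls; EC50 by logarithmic regression, mean ± SD of three independent experiments.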

Data set [3] has as its system L. amazonensis amastigotes. The data set can be described thus: Anti-L. amazonensis amastigote assessment in RAW 264.7 macrophages. As to conditions: for EC50: Leishmania amazonensis, RAW264.7, in RAW 264.7, 48 h, read-out: EC50 L. amazonensis intracellular amastigotes; for S.I. (selectivity index): host cell/parasite EC50 ratio, RAW/L. amazonensis. In kind it is cell-based, Leishmania amazonensis. Here is the method: RAW 264.7 cells were seeded in a 96-well microplate (2.0 × 10^4 cells per well) in complete DMEM with 5% FBS and incubated for 3 h at 37 °C in 5% CO2 for cell adhesion. The medium was renewed, and L. amazonensis promastigotes (3.0 × 10^5 parasites per well) were added. After 24 h of incubation at 37 °C in 5% CO2, the cell monolayer was washed with PBS to remove noninternalized parasites, the medium was renewed, and compounds were added at a range of concentrations in triplicate (100–1 μM). Untreated infected cells and noninfected RAW 264.7 cells were used as negative and positive controls, respectively. Vehicle control containing DMEM and 0.3% DMSO was maintained for comparison. After incubation for 48 h at 37 °C in 5% CO2, the medium was removed, and a solution containing 0.02% SDS in PBS (20 µL per well) was added. Macrophage lysis and amastigote release were accompanied under an inverted microscope for 10–15 min. SIM with 12.5% SFB (80 µL per well) was added, parasites were allowed to differentiate into promastigotes for 48 h at 27 °C, and an MTT salt solution in PBS was added (3.0 mM, 20 µL per well). After incubation for 2 h at 27 °C, the MTT formazan was dissolved by adding 120 µL of solubilizing buffer (50% isopropanol, 40% acetate buffer pH 5.4, 10% Triton X). Absorbance was measured using a microplate reader at 570 nm.
as §1

The target of data set [4] is T1, human serum albumin (HSA) (Homo sapiens, UniProt P02768).
T1 construct: purchased Sigma-Aldrich A3782-1G
Kind of data set: Competitive binding with HSA site probes (warfarin, ibuprofen, digitoxin). The protocol:
Competitive binding studies were carried out using site probes for sites I, II, and III, i.e., warfarin, ibuprofen, and digitoxin, respectively. The HSA and site probes were used at a fixed concentration (1.0 × 10^−5 M), and the fluorescence quenching titration with compound 23 was performed as described previously for the steady-state fluorescence quenching procedure at 310 K.

For data set [5], the target named is T1, human serum albumin (HSA). The data set can be described thus: Circular dichroism of HSA. It is filed as binding. As to conditions: HSA 1.0 × 10^−6 M, proportion 1:10, 310 K. Here is the method:
The CD analysis was carried out using 3.0 mL of HSA solution (1.0 × 10^−6 M, in PBS) without and with 23 in the proportion 1:10 in the 200–250 nm range at 310 K. The average spectra were obtained from three successive runs and corrected by subtraction of the buffer signal. The secondary structure content was estimated by analysis of the CD spectra using the online server BestSel (Beta Structure Selection http://bestsel.elte.hu/index.php; accessed on 12 March 2022).
For orientation: Circular dichroism is the unequal absorption of left and right circularly polarised light.

[6] abbreviates: Trypanosoma cruzi, TULAHUEN, screening at 50 μM, 120 h, compared with untreated controls.

Each structure is given as a SMILES string.

T1 sequence (P02768 25-609): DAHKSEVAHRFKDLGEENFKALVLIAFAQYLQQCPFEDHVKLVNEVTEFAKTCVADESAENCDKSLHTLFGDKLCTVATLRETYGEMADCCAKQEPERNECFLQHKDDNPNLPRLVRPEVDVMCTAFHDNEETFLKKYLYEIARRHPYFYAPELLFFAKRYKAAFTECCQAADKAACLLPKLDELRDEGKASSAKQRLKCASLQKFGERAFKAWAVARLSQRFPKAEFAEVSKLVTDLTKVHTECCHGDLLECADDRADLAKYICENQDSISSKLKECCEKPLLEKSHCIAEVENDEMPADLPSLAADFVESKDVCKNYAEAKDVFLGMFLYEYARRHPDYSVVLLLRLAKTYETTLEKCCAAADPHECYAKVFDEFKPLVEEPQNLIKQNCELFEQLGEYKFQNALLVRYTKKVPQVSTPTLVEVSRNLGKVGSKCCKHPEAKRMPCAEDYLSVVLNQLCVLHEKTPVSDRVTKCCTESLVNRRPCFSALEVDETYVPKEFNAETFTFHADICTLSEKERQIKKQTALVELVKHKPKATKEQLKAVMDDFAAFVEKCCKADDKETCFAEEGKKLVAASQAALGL

The term viability denotes the share of living cells, or the viability signal relative to a control. As a reminder, the EC50 is the concentration needed to bring the measured effect to its halfway point. `COc1cc(/C=C/c2nc(-c3ccccc3)no2)cc(OC)c1OC` [Compound 12, (E)-3-phenyl-5-[2-(3,4,5-trimethoxyphenyl)vinyl]-1,2,4-oxadiazole] gave a viability at 50 µM in data set [1] (setting [6]) of 37.8 ± 2.6%. Moreover, the EC50 turned out to be 22.5 ± 3.7 µM in data set [1] (Trypanosoma cruzi, TULAHUEN); 26 ± 3 µM in data set [2]; 50.1 ± 16.4 µM in data set [3]. In addition, the “S.I. (selectivity index)” value in data set [1] is listed as greater than 4.5; in data set [3], greater than 2.0.

In data set [1] (setting [6]), `C(=C\c1nc(-c2ccccc2)no1)/c1cccnc1` [Compound 15, (E)-3-phenyl-5-[2-pyridyn-3-yl-vinyl]-1,2,4-oxadiazole] came in with a viability at 50 µM of 33.8%. The EC50 in data set [1] (Trypanosoma cruzi, TULAHUEN) was determined as 33.8 ± 2.3 µM; in data set [2], 53.6 ± 2.2 µM. The “S.I. (selectivity index)” value in data set [1] is greater than 3.0. Moreover, the “% Viability T. cruzi amastigotes” value in data set [1] (screening at 50 μM, 120 h, compared with untreated controls, 50 µM) amounted to 21.5 ± 2.2%.

Turning to `COc1cc(/C=C/c2nc(-c3cc(OC)c(OC)c(OC)c3)no2)cc(OC)c1OC` [Compound 23, (E)-3-(3,4,5-trimethoxyphenyl)-5-[2-(3,4,5-trimethoxyphenyl)-vinyl]-1,2,4-oxadiazole], the “lowest concentration with significant amastigote growth inhibition compared with host cell toxicity” value in data set [1] (T. cruzi vs LLC-MK2, p < 0.05) was 1.0 µM; in data set [3] (L. amazonensis vs RAW 264.7, p < 0.05), 16 µM. Further, the viability at 50 µM in data set [1] (setting [6]) turned out to be 8.6 ± 1.2%. Moreover, the viability at 1 µM in data set [1] (Trypanosoma cruzi, TULAHUEN, LLC-MK2, T. cruzi amastigotes at 1.0 μM, read-out: amastigote viability) was 81.3 ± 6.2%. Further, the EC50 came to 2.9 ± 0.2 µM in data set [1] (Trypanosoma cruzi, TULAHUEN); 12.2 ± 0.7 µM in data set [2]; 13.5 ± 3.6 µM in data set [3]. Further, the entries for the “S.I. (selectivity index)” value in data set [1] and in data set [3] were 26.7 and greater than 7.4, respectively. In data set [4] (310 K), the “decrease of the KSV value in the presence of warfarin” value worked out at 14%. For the same compound, in data set [4] (competitive binding with site probes), the “main binding site in HSA” value was “subdomain IIA (site I)”. In addition, in data set [5], the “effect on the secondary content of HSA (CD)” value is “does not significantly perturb”.

On to `COc1cc(-c2noc(/C=C/c3ccc4c(c3)OCO4)n2)cc(OC)c1OC` [Compound 24, (E)-3-(3,4,5-trimethoxyphenyl)-5-[2-(3,4-methylenedioxy-phenyl)vinyl]-1,2,4-oxadiazole], for which the viability at 50 µM in data set [1] (setting [6]) came to 42.2 ± 2.7%. Further, the EC50 in data set [1] (Trypanosoma cruzi, TULAHUEN) was determined as 28.7 ± 3.1 µM; in data set [2], 10 ± 2.7 µM; in data set [3], 24.8 ± 10.4 µM. The “S.I. (selectivity index)” value in data set [1] is recorded as 1.9; in data set [3] it was 2.3.
